Data as given in patent US6737383B1, “Herbicidal oxadiazolidines” (priority 1999, dated 2004).

How the values were obtained:
wheat = assay: Test B pre/postemergence wheat; type: in vivo, Triticum aestivum; details: for Wheat plant response rating: scale of 0 to 10 where 0 is no effect and 10 is complete control
Method in brief: (§1)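 Test chemicals in a non-phytotoxic solvent mixture with surfactant were sprayed preemergence onto planted seeds and postemergence onto plants 2 to 18 cm tall (1- to 4-leaf stage). After twelve to sixteen days in a greenhouse, injury was visually rated against untreated controls from 0 (no effect) to 10 (complete control).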

corn = assay: Test B pre/postemergence corn; type: in vivo, Zea mays; details: for Corn plant response rating: scale of 0 to 10 where 0 is no effect and 10 is complete control
Method in brief: as §1

purple nutsedge = assay: Test B pre/postemergence purple nutsedge; type: in vivo, Cyperus rotundus; details: for Nutsedge plant response rating: scale of 0 to 10 where 0 is no effect and 10 is complete control
Method in brief: as §1

velvetleaf = assay: Test B pre/postemergence velvetleaf; type: in vivo, Abutilon theophrasti; details: for Velvetleaf plant response rating: scale of 0 to 10 where 0 is no effect and 10 is complete control
Method in brief: as §1

blackgrass = assay: Test B pre/postemergence blackgrass; type: in vivo, Alopecurus myosuroides
Method in brief: as §1

crabgrass = assay: Test B pre/postemergence crabgrass; type: in vivo, Digitaria sanguinalis; details: for Crabgrass plant response rating: scale of 0 to 10 where 0 is no effect and 10 is complete control
Method in brief: as §1

soybean = assay: Test B pre/postemergence soybean; type: in vivo, Glycine max; details: for Soybean plant response rating: scale of 0 to 10 where 0 is no effect and 10 is complete control
Method in brief: as §1

rape = assay: Test B pre/postemergence rape; type: in vivo, Brassica napus; details: for Rape plant response rating: scale of 0 to 10 where 0 is no effect and 10 is complete control
Method in brief: as §1

giant foxtail = assay: Test B pre/postemergence giant foxtail; type: in vivo, Setaria faberii; details: for Giant foxtail plant response rating: scale of 0 to 10 where 0 is no effect and 10 is complete control
Method in brief: as §1

pigweed = assay: Test B pre/postemergence pigweed; type: in vivo, Amaranthus retroflexus; details: for Redroot pigweed plant response rating: scale of 0 to 10 where 0 is no effect and 10 is complete control
Method in brief: as §1

bedstraw = assay: Test B pre/postemergence bedstraw; type: in vivo, Galium aparine
Method in brief: as §1

morningglory = assay: Test B pre/postemergence morningglory; type: in vivo, Ipomoea hederacea; details: for Morningglory plant response rating: scale of 0 to 10 where 0 is no effect and 10 is complete control
Method in brief: as §1

surinam grass = assay: Test B pre/postemergence surinam grass; type: in vivo, Brachiaria decumbens
Method in brief: as §1

wild oat = assay: Test B pre/postemergence wild oat; type: in vivo, Avena fatua; details: for Wild oats plant response rating: scale of 0 to 10 where 0 is no effect and 10 is complete control
Method in brief: as §1

rice = assay: Test B flood test rice; type: in vivo, Oryza sativa
Method in brief: (§2)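 Read-out is a visual response score from 0 (no effect) to 10 (complete control), assigned by comparison with untreated controls. Treatment was applied at the 2-leaf stage, and plants stayed in the greenhouse for twelve to sixteen days before scoring.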

duck salad = assay: Test B flood test duck salad; type: in vivo, Heteranthera limosa
Method in brief: as §2

[1] = Postemergence, Rate 125 g/ha, scale 0 to 10, 0 is no effect, 10 is complete control
[2] = Preemergence, Rate 62 g/ha, scale 0 to 10 (0 no effect, 10 complete control)
[3] = Rate 500 g/ha, Postemergence, scale 0 to 10, 0 no effect, 10 complete control
[4] = Preemergence, Rate 250 g/ha, scale of 0 to 10 where 0 is no effect and 10 is complete control
[5] = Preemergence, Rate 500 g/ha, scale of 0 to 10 where 0 is no effect and 10 is complete control
[6] = Rate 62 g/ha, Postemergence, scale of 0 to 10 where 0 is no effect and 10 is complete control
[7] = Rate 250 g/ha, Postemergence, scale of 0 to 10 where 0 is no effect and 10 is complete control
[8] = Postemergence (flood test), Rate 125 g/ha, scale 0 to 10, 0 is no effect, 10 is complete control
[9] = Rate 62 g/ha, Postemergence (flood test species), scale of 0 to 10 where 0 is no effect and 10 is complete control
[10] = Rate 500 g/ha, listed under Postemergence (flood test species), scale 0 to 10, 0 no effect, 10 complete control

CC(C)N(C(=O)n1oc(=O)n(C2CCCCCC2)c1=O)c1ccc(F)cc1F [Compound 342]
Plant response rating, Wheat (wheat; [1]): 0 | Plant response rating, Wheat (wheat; [2]): 0 | Wheat plant response rating (0 to 10 scale) (wheat; Preemergence, Rate 125 g/ha): 0 | Wheat plant response rating (wheat; Preemergence, Rate 250 g/ha): 0 | Wheat plant response rating (wheat; Preemergence, Rate 500 g/ha): 3 | Wheat plant response rating (wheat; Rate 62 g/ha, Postemergence): 0 | Plant response rating, Wheat (wheat; [3]): 0 | Plant response rating, Corn (corn; [1]): 0 | Plant response rating, Corn (corn; [2]): 0 | Corn plant response rating (0 to 10 scale) (corn; Preemergence, Rate 125 g/ha): 0 | Corn plant response rating (corn; Preemergence, Rate 250 g/ha): 0 | Corn plant response rating (corn; Preemergence, Rate 500 g/ha): 0 | Corn plant response rating (corn; Rate 62 g/ha, Postemergence): 0 | Plant response rating, Corn (corn; [3]): 0 | Plant response rating, Nutsedge (purple nutsedge; [1]): 0 | Plant response rating, Nutsedge (purple nutsedge; [2]): 0 | Nutsedge plant response rating (0 to 10 scale) (purple nutsedge; Preemergence, Rate 125 g/ha): 0 | Nutsedge plant response rating (purple nutsedge; Preemergence, Rate 250 g/ha): 0 | Nutsedge plant response rating (purple nutsedge; Preemergence, Rate 500 g/ha): 0 | Nutsedge plant response rating (purple nutsedge; Rate 62 g/ha, Postemergence): 0 | Plant response rating, Nutsedge (purple nutsedge; [3]): 0 | Plant response rating, Velvetleaf (velvetleaf; [1]): 0 | Plant response rating, Velvetleaf (velvetleaf; [2]): 0 | Velvetleaf plant response rating (0 to 10 scale) (velvetleaf; Preemergence, Rate 125 g/ha): 0 | Velvetleaf plant response rating (velvetleaf; Preemergence, Rate 250 g/ha): 0 | Velvetleaf plant response rating (velvetleaf; Preemergence, Rate 500 g/ha): 0 | Velvetleaf plant response rating (velvetleaf; Rate 62 g/ha, Postemergence): 0 | Plant response rating, Velvetleaf (velvetleaf; [3]): 0 | Plant response rating, Blackgrass (blackgrass; [1]): 0 | Plant response rating, Blackgrass (blackgrass; [2]): 0 | Blackgrass plant response rating (0 to 10 scale) (blackgrass; Preemergence, Rate 125 g/ha): 3 | Blackgrass plant response rating (blackgrass; [4]): 3 | Blackgrass plant response rating (blackgrass; [5]): 7 | Blackgrass plant response rating (blackgrass; [6]): 0 | Plant response rating, Blackgrass (blackgrass; [7]): 2 | Plant response rating, Blackgrass (blackgrass; [3]): 4 | Plant response rating, Crabgrass (crabgrass; [1]): 0 | Plant response rating, Crabgrass (crabgrass; [2]): 4 | Crabgrass plant response rating (0 to 10 scale) (crabgrass; Preemergence, Rate 125 g/ha): 6 | Crabgrass plant response rating (crabgrass; Preemergence, Rate 250 g/ha): 9 | Crabgrass plant response rating (crabgrass; Preemergence, Rate 500 g/ha): 9 | Crabgrass plant response rating (crabgrass; Rate 62 g/ha, Postemergence): 0 | Plant response rating, Crabgrass (crabgrass; [3]): 3 | Plant response rating, Soybean (soybean; [1]): 5 | Plant response rating, Soybean (soybean; [2]): 0 | Soybean plant response rating (0 to 10 scale) (soybean; Preemergence, Rate 125 g/ha): 0 | Soybean plant response rating (soybean; Preemergence, Rate 250 g/ha): 0 | Soybean plant response rating (soybean; Preemergence, Rate 500 g/ha): 0 | Soybean plant response rating (soybean; Rate 62 g/ha, Postemergence): 3 | Plant response rating, Soybean (soybean; [3]): 7 | Plant response rating, Rape (rape; [1]): 0 | Plant response rating, Rape (rape; [2]): 0 | Rape plant response rating (0 to 10 scale) (rape; Preemergence, Rate 125 g/ha): 0 | Rape plant response rating (rape; Preemergence, Rate 250 g/ha): 0 | Rape plant response rating (rape; Preemergence, Rate 500 g/ha): 0 | Rape plant response rating (rape; Rate 62 g/ha, Postemergence): 0 | Plant response rating, Rape (rape; [3]): 4 | Plant response rating, Giant foxtail (giant foxtail; [1]): 0 | Plant response rating, Giant foxtail (giant foxtail; [2]): 8 | Giant foxtail plant response rating (0 to 10 scale) (giant foxtail; Preemergence, Rate 125 g/ha): 9 | Giant foxtail plant response rating (giant foxtail; Preemergence, Rate 250 g/ha): 10 | Giant foxtail plant response rating (giant foxtail; Preemergence, Rate 500 g/ha): 10 | Giant foxtail plant response rating (giant foxtail; Rate 62 g/ha, Postemergence): 0 | Plant response rating, Giant foxtail (giant foxtail; [3]): 7 | Plant response rating, Redroot pigweed (pigweed; [1]): 2 | Plant response rating, Redroot pigweed (pigweed; [2]): 0 | Redroot pigweed plant response rating (0 to 10 scale) (pigweed; Preemergence, Rate 125 g/ha): 0 | Redroot pigweed plant response rating (pigweed; Preemergence, Rate 250 g/ha): 0 | Redroot pigweed plant response rating (pigweed; Preemergence, Rate 500 g/ha): 0 | Redroot pigweed plant response rating (pigweed; Rate 62 g/ha, Postemergence): 2 | Plant response rating, Redroot pigweed (pigweed; [3]): 8 | Plant response rating, Bedstraw (bedstraw; [1]): 5 | Plant response rating, Bedstraw (bedstraw; [2]): 0 | Bedstraw plant response rating (0 to 10 scale) (bedstraw; Preemergence, Rate 125 g/ha): 0 | Bedstraw plant response rating (bedstraw; [4]): 0 | Bedstraw plant response rating (bedstraw; [6]): 4 | Plant response rating, Bedstraw (bedstraw; [7]): 5 | Plant response rating, Bedstraw (bedstraw; [3]): 5 | Plant response rating, Morningglory (morningglory; [1]): 7 | Plant response rating, Morningglory (morningglory; [2]): 0 | Morningglory plant response rating (0 to 10 scale) (morningglory; Preemergence, Rate 125 g/ha): 0 | Morningglory plant response rating (morningglory; Preemergence, Rate 250 g/ha): 0 | Morningglory plant response rating (morningglory; Preemergence, Rate 500 g/ha): 0 | Morningglory plant response rating (morningglory; Rate 62 g/ha, Postemergence): 7 | Plant response rating, Morningglory (morningglory; [3]): 9 | Plant response rating, B. signalgrass (surinam grass; [1]): 0 | Plant response rating, B. signalgrass (surinam grass; [2]): 0 | B. signalgrass plant response rating (0 to 10 scale, 0 is no effect, 10 is complete control) (surinam grass; Preemergence, Rate 125 g/ha): 0 | B. signalgrass plant response rating (surinam grass; [4]): 2 | B. signalgrass plant response rating (surinam grass; [5]): 6 | B. signalgrass plant response rating (surinam grass; [6]): 0 | Plant response rating, B. signalgrass (surinam grass; [7]): 0 | Plant response rating, B. signalgrass (surinam grass; [3]): 1 | Plant response rating, Wild oats (wild oat; [1]): 0 | Plant response rating, Wild oats (wild oat; [2]): 0 | Wild oats plant response rating (0 to 10 scale) (wild oat; Preemergence, Rate 125 g/ha): 0 | Wild oats plant response rating (wild oat; Preemergence, Rate 250 g/ha): 0 | Wild oats plant response rating (wild oat; Preemergence, Rate 500 g/ha): 4 | Wild oats plant response rating (wild oat; Rate 62 g/ha, Postemergence): 0 | Plant response rating, Wild oats (wild oat; [3]): 0 | Plant response rating, Rice (rice; [8]): 0 | Rice plant response rating (rice; [9]): 0 | Plant response rating, Rice (rice; [10]): 0 | Plant response rating, Ducksalad (duck salad; [8]): 0 | Ducksalad plant response rating (duck salad; [9]): 0 | Plant response rating, Ducksalad (duck salad; [10]): 4
